In US20080226596A1, “Therapeutic compositions and methods useful in treating hepatitis” (priority 2006, published 2008):
Several values for one entry are separate records, joined by “and”; a condition that tells them apart may be missing. Identical values can stand only once.

Experiments:
HL-60 cells = assay: HL-60 differentiation, NBT reduction; type: cell-based, human; settings: day 6; sodium stibogluconate 400 μg/ml, GM-CSF 25 ng/ml
Protocol: (§1) Differentiation of AML cell lines was assessed by their ability to produce superoxide as measured by reduction of NBT to formazan and by analysis of expression of CD11b surface marker by flow cytometry. For NBT reduction, each cell suspension was mixed with an equal volume of solution containing 1 mg/ml of NBT (Sigma) and 2.5 µg/ml of TPA for 30 minutes at 37° C. After incubation, cells containing the purple formazan deposits and cells devoid of NBT-reducing activity (white cells) in each sample were determined by counting 200 cells under microscope. Data is expressed as a percentage based on the following ratio: purple cells/purple+white cells. For analysis of cell surface antigens, cells were exposed to phycoerythrin (PE)-conjugated murine anti-human CD11b (DAKO Corp., Carpinteria, Calif.). Analysis of fluorescence was performed on a FACScan flow cytometer (Beckton Dickinson, Mountain View, Calif.).

U937 cells = assay: U937 differentiation, NBT reduction; type: cell-based, human; settings: day 6; sodium stibogluconate 400 μg/ml, GM-CSF 25 ng/ml
Protocol: as §1

NB4 cells [1] = assay: NB4 cell cycle analysis; type: cell-based, human; settings: 3 days; sodium stibogluconate 250 μg/ml, ATRA 1 μM
Protocol: The cell cycle was analyzed by flow cytometry after 3 days of culture of NB4 cells in the absence or presence of sodium stibogluconate (250 µg/ml) or ATRA (1 μM). Briefly, the cells were fixed in cold ethanol and incubated for 30 minutes at 4° C. in the dark with a solution of 50 […], 1 mg/ml RNase and 0.1% NP-40. Analysis was performed immediately after staining using the CELLFIT program (Becton Dickinson, Mountain View, Calif.).

SHP-1 [2] = target: T1, SHP-1 (Mus musculus, UniProt P29351); assay: Reversibility of SHP-1 inhibition (washing of bead-bound GST/SHP-1); type: biochemical; settings: pre-incubated 4° C. 30 minutes, washed 3 times
T1 construct: made in house
Source text: The beads were then either subjected to in vitro PTPase assays or washed 3 times in Tris buffer then subjected to in vitro PTPase assays.

PRL-3 = target: T2, PRL-3 (Homo sapiens, UniProt O75365); assay: In vitro PTPase assay, recombinant PRL-3, DiFMUP substrate; type: biochemical; settings: comparable conditions
T2 construct: GST (N); made in house; host or cells: DHSa (DH5a) bacteria
Protocol: (§2) In vitro PTPase assays were used to determine the effects of compounds on recombinant PTPases, following established procedures using a synthetic phosphotyrosine peptide or DiFMUP as the substrate (Pathak et al., J. Imumol. 167, 3391 (2001)). Briefly, individual PTPases (0.1 µg/reaction) in 50 μL of PTPase buffer (50 mM Tris, pH 7.4) were incubated at 22° C. for 10 minutes or as indicated in the absence or presence of inhibitory compounds. Substrates (0.2 mM phosphotyrosine peptide) were then added and allowed to react at 22° C. for 18 hrs. PTPase activity of individual reactions was measured by adding 100 µL of malachite green solution (UBI) and then quantifying the amounts of free phosphate cleaved by the PTPase from the peptide substrate by spectrometry (OD660 nm). PTPase assays using DiFMUP as a substrate were conducted following a previously described procedure (Matter, et al., Biochem. Biophys. Res. Comm. 283, 1061 (2001)). Relative PTPase activities were calculated based on the formula: (PTPase activity in the presence of an inhibitory compound/PTPase activity in the absence of the compound)× 100%. To assess the reversibility of PTPase inhibition, GST fusion proteins of the PTPases bound on glutathione beads (Pharmacia) were pre-incubated with cold Tris buffer (50 mM Tris, pH 7.0) or Tris buffer containing the inhibitor at 4° C. for 30 minutes. The beads were then washed three times in cold Tris buffer or not washed prior to subjecting to in vitro PTPase assays.

SHP-1 [3] = target: T1, SHP-1; assay: In vitro PTPase assay, recombinant GST/SHP-1; type: biochemical
Protocol: (§3) In vitro PTPase activities were measured using the commercial protein tyrosine phosphatase assay kit (Upstate Biotechnology, Inc. (“UBI”)) following established procedure known to one of skill in the art. This assay measures the in vitro dephosphorylation of a synthetic phosphotyrosine peptide of the sequence Arg-Arg-Leu-Ile-Glu-Asp-Ala-Gle-Tyr-Ala-Ala-Arg-Gly, wherein the tyrosine is phosphorylated (SEQ ID NO: 3). Briefly, 0.01 µg of GST/PTPase fusion proteins was incubated in 50 μL of Tris buffer (10 mM Tris, pH 7.4) containing different concentrations of inhibitors or chemicals (0-1,000 μg/ml) at 22° C. for 10 minutes, followed by addition of 0.2 mM of the phosphotyrosine peptide and incubation at 22° C. for 18 hours. 100 μL of Malachite Green solution was added and incubated for 5 minutes, and the absorbance at 660 nm was measured after 5 minutes.
as §2
(§4) In vitro PTPase assays were used to determine the effects of levamisole (Sigma), pentamidine (American Pharmaceutical Partners, Inc.), and ketoconazole (Sigma) on recombinant PTPases, following established procedures (Pathak et al., J. Imumol. 167, 3391 (2001); Pathak et al., Leukemia 16, 2285 (2002), Yi et al., J. Immunol. 169, 5978 (2002)) using a synthetic phosphotyrosine peptide or DiFMUP as the substrate as detailed above in section I.A.2.

GSTm8 = assay: In vitro PTPase assay, GSTm8; type: biochemical; settings: 3-4 μg/ml or 10-100 μg/ml
Source text: as §4

MKP1 = target: T3, MKP1 (Homo sapiens, UniProt P28562); assay: In vitro PTPase assay, GST/MKP1; type: biochemical
T3 construct: GST (N); made in house; host or cells: DH5a bacteria
T3 sequence (P28562 1-367): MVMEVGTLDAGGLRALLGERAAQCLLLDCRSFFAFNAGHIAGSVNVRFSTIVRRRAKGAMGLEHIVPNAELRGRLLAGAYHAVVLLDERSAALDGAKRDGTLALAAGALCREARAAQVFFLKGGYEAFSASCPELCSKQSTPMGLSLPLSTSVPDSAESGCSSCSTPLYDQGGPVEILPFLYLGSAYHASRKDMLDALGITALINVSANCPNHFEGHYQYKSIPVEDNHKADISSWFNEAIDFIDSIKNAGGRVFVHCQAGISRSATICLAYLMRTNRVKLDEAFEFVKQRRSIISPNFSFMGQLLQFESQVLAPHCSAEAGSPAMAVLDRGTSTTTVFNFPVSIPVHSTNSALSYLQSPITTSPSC
Protocol: as §3, §4

[4] = tested on: Jak2/Stat5 tyrosine phosphorylation; assay: IL-3-induced Jak2/Stat5 tyrosine phosphorylation in Baf3 cells; type: cell-based, murine; settings: potassium antimonyl tartrate
Protocol: For induction of cellular protein phosphorylation by sodium stibogluconate or pervanadate, Baf3 cells were incubated in 0.1% FCS-RPMI 1640 medium at 37° C. for 16 hours. The cells were then washed twice in RPMI 1640 medium and incubated with sodium stibogluconate or pervanandate (0.1 mM) for various times prior to termination by lysing cells in cold lysis buffer (50 mM Tris, pH 7.4; 150 mM NaCl; 0.2 mM Na3VO4; 20 mm NaF; 1% Nonidet P-40; 2 mM PMSF; 20 µg/ml of Aprotinin and 1 mM of sodium molybdic acid). To determine the effect of sodium stibogluconate or potassium antimonyl tartrate on IL-3-induced Jak/Stat phosphorylation, Baf3 cells were deprived of the growth factor for 16 hours in 0.1% FCS RPMI 1640 medium and then incubated with or without sodium stibogluconate or potassium antimonyl tartrate for 10 minutes. IL-3 was next added to the cell suspension and incubated for various times. The Cells were then harvested and lysed in cold lysis buffer at 4° C. for 45 minutes. Total cell lysates (TCL) were separated in SDS-PAGE gels, blotted onto nitrocellulose membrane (Schleicher & Schuell), probed with specific antibodies and detected using an enhanced chemiluminescence kit (ECL, Amersham, Arlington Heights, Ill.).

Baf3 cells = assay: Baf3 cell proliferation assay; type: cell-based, murine
Protocol: The murine hematopoietic cell line Baf3 was maintained in RPMI 1640 medium supplemented with 10% fetal calf serum (FCS) and murine IL-3 (20 units/ml) as described previously in Damen et al., J. Biol. Chem. 270, 23402 (1995). Human myeloid cell line TF-1 was maintained in RPMI 1640 supplemented with 10% FCS and 40 ng/ml of recombinant human GM-CSF as described previously in Thomassen et al., Clin. Immunol. 95, 85 (2000). For cell proliferation assays, cells were washed in 10% FCS medium twice, resuspended in 10% FCS medium, incubated at 37° C. for 16 hours, and then cultured at 37° C. in 10% FCS medium containing various amounts of cytokines, sodium stibogluconate, or potassium antimonyl tartrate for 3-6 days as indicated. The cell numbers in proliferation assays were determined by an MTT assay or by microscopic cell counting as indicated.

PTP1B = target: T4, PTP1B (Homo sapiens, UniProt P18031); assay: In vitro PTPase assay, GST/PTP1B; type: biochemical; settings: 1-1,000 μg/ml
T4 construct: GST; purchased Upstate Biotechnology Inc. (Lake Placid, N.Y.)
Protocol: as §3, §4

NB4 cells [5] = assay: NB4 differentiation, NBT reduction; type: cell-based, human; settings: comparable conditions
Protocol: as §1

T1 sequence (P29351 whole entry): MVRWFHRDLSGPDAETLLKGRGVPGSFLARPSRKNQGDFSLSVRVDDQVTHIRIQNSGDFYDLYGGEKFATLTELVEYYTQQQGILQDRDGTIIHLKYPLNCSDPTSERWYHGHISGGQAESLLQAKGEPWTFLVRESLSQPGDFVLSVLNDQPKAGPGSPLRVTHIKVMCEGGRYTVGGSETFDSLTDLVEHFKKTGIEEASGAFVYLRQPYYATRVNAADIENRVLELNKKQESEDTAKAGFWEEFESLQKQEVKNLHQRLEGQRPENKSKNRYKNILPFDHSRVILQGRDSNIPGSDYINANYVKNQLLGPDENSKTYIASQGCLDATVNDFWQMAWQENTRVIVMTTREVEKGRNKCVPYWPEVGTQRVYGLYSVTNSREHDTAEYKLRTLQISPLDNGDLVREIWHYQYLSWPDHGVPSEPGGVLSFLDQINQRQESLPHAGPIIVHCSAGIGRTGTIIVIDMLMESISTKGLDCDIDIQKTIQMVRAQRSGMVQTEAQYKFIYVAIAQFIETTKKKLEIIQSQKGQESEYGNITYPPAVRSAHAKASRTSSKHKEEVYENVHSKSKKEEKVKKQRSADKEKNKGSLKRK
T2 sequence (O75365 whole entry): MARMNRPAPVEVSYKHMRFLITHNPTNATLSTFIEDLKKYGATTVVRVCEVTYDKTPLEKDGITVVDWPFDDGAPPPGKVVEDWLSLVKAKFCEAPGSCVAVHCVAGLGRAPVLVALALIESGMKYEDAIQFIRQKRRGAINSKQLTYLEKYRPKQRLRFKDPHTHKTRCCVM
T4 sequence (P18031 whole entry, species assumed): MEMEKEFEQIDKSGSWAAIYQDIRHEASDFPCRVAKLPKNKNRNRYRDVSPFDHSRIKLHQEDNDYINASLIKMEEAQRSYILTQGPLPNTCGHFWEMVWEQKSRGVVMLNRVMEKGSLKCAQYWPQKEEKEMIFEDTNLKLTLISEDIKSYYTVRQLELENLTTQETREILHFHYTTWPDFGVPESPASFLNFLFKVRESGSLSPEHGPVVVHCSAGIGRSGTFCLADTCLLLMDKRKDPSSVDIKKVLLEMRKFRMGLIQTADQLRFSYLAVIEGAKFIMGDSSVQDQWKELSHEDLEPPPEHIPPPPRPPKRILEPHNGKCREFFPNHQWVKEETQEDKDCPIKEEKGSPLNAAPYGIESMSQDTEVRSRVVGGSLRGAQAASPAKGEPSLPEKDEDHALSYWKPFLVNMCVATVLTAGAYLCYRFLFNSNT

CC1=C(/C=C/C(C)=C/C=C/C(C)=C/C(=O)O)C(C)(C)CCC1 [ATRA, All-trans-retinoic acid]
NBT-positive (differentiated) HL-60 cells (HL-60 cells): 90%
NBT-positive (differentiated) U937 cells (U937 cells): 72% and 73%
NB4 cell cycle effect (NB4 cells [1]): arrested at G1 phase

Cc1ccc(C(=O)Nc2ccc(S(=O)(=O)O)c3cc(S(=O)(=O)O)cc(S(=O)(=O)O)c23)cc1NC(=O)c1cccc(NC(=O)Nc2cccc(C(=O)Nc3cc(C(=O)Nc4ccc(S(=O)(=O)O)c5cc(S(=O)(=O)O)cc(S(=O)(=O)O)c45)ccc3C)c2)c1 [Suramin]
inhibition of GST/SHP-1 after washing (SHP-1 [2]): almost completely removed by the washing process
inhibition of PRL-3 with DiFMUP substrate (PRL-3): less effective than sodium stibogluconate
inhibition of SHP-1 compared with sodium stibogluconate (SHP-1 [3]; under comparable conditions): less effective

c1ccc([C@H]2CN3CCSC3=N2)cc1 [levamisole]
inhibitory activity against GSTm8 (GSTm8): no obvious inhibitory activity
inhibition of MKP1 (MKP1): substantial inhibition
inhibitory activity against SHP-1 (SHP-1 [3]; 3-4 μg/ml or 10-100 μg/ml): no obvious inhibitory activity

O.O.O.O=C([O-])[C@H]([O-])[C@@H]([O-])C(=O)[O-].O=C([O-])[C@H]([O-])[C@@H]([O-])C(=O)[O-].[K+].[K+].[Sb+3].[Sb+3] [potassium antimonyl tartrate]
IL-3-induced Stat5 phosphorylation [4]: failed to enhance IL-3-induced Stat5 phosphorylation
toxicity against Baf3 cells (Baf3 cells): marked toxicity against Baf3 cells
IL-3-induced proliferation of Baf3 cells (Baf3 cells; IL-3 10 units/ml, three days): failed to enhance
inhibition of SHP-1 (SHP-1 [3]; 1-1,000 μg/ml): no detectable inhibition
inhibition of PTP1B (PTP1B): no detectable inhibition

[Na+].[Na+].[Na+].[O]=[V]([O-])([O-])[O-] [sodium orthovanadate]
inhibition of PRL-3 with DiFMUP substrate (PRL-3): less effective than sodium stibogluconate

GM-CSF: recombinant human GM-CSF
NBT-positive (differentiated) HL-60 cells (HL-60 cells): 8-10%
NBT-positive (differentiated) U937 cells (U937 cells): 8-10%
effect of GM-CSF on NB4 differentiation (NB4 cells [5]): no detectable effect
